Data: patent US20260234159A1, “SMALL MOLECULE TREATMENT OF FATTY LIVER DISEASE AND HCC” (SCANDIEDGE THERAPEUTICS AB, priority 2023, published 2026)
Read-outs that look alike come from different tables or passages of the source.

How the values were obtained:
[1] = In vivo toxicological study in rats: haematology; set-up: species or system rats of the Wistar strain
Description: Forty-two male and forty-two female rats of the Wistar strain were allocated to the study. Three groups of three males and three females were given doses of 30, 100 and 300 mg/kg of target compounds (Table 8). The vehicle was 1.5 w/w % HPMC, 1.5 w/w % PS80 in 10 mM PBS, pH 7 and dose volume were 5 mL/kg. The animals were acclimatised at least 14 day prior to the study and exposed to a 12 hours light, 12 hours dark light cycle. The formulations were administered via oral gavage. Administration occurred once daily in the morning for seven consecutive days. Blood for scheduled haematology and plasma chemistry were taken at necropsy. For plasma chemistry, 0.6 ml blood (lithium heparin) per animal and for haematology, 0.5 ml blood (K2EDTA) per animal. The blood and plasma were analysed using Exigo analyzer and Vetscan equipment. Blood was analysed within 60 min of sampling. On the morning of analysis, the Exigo analyzer was checked against a reference sample provided by the manufacturer, and a control sample analysis cycle was performed (Table 9).

[2] = tested on: c-Myc; test: Nuclear protein western blot, c-Myc; assay type: cell-based, human; settings: 10 μM, 2 days
Description: HepG2 cells were seeded into a 6-well plate at 400,000 cells per well. After treatment with 10 μM of JNK-IN-5A and its derivatives for two days, lysates were harvested with CelLytic M (C2978, Sigma-Aldrich). 20 μg lysate was prepared with 2× Laemmli Sample Buffer (1610737, Biorad). SDS PAGE were performed using Mini-PROTEAN® TGX™ Precast Gels (Bio-Rad) and transferred using Trans-Blot® Turbo™ Transfer System (Bio-Rad). Primary antibody, PARP (95425, Cell signalling), Caspase 3 (ab32042, abcam), Bcl-2 (ab182858), STAT1 (HPA000982, Merk), PKL (06653, Sigma), PKM (4053S, Cell signalling), GAPDH (ab8245, abcam), P53 (ab32389, abcam), p21 (ab109199, abcam), p-S349 p62 (ab211324, abcam), p62 (ab109012, abcam), c-Myc (ab32072, abcam), GPX4 (ab125066, abcam), MMP9 (MA5-32705, Invitrogen), β-actin (ab8227, abcam), and α-tubulin (ab7291, abcam) were blotted overnight and Goat Anti-Rabbit HRP (ab205718) and goat anti-mouse IgG-HRP (sc2005, Santa Cruz Biotechnology, Inc.) were blotted for secondary antibody for one hour. ImageQuantTMLAS 500 (29-0050-63, GE) was used to detect protein bands.

[3] = tested on: HepG2 cells; test: Triglyceride (TAG) measurement assay, one week steatosis model; assay type: cell-based, human; settings: Homo sapiens
How it was run: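 HepG2 cells steatosis-induced for one week in high-glucose DMEM/10% FBS with 10 μg/ml insulin and 10 μM T0901317, media changed at days 0, 3 and 5, with 10 μM test compound throughout. Triglyceride measured colorimetrically (OD 570 nm); viability by MTT.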

[4] = female, 30 mg/kg oral daily 7 d
[5] = female, 100 mg/kg oral daily 7 d
[6] = female, 300 mg/kg oral daily 7 d

In the case of `N#Cc1c(NC(=O)c2cccc3ccccc23)sc2c1CCN(CC(=O)Nc1cccc(Br)c1)C2` [PKL-B171], the GRAN [1, 4] is reported as 0.77 10^9/l, the HCT [1, 4] is reported as 43.0% and the HGB [1, 4] is reported as 15.3 g/dL. The LYM [1, 4] was 4.6 10^9/l, the MCH [1, 4] was 18.9 pg and the MCHC [1, 4] was 35.6 g/dL. The MCV [1, 4] was 53.3 fL, the MONO [1, 4] was 0.13 10^9/l and the PLT [1, 4] was 933 10^9/l. The RBC [1, 4] was 8.08 10^12/l, the RDW % [1, 4] was 14.6% and the WBC [1, 4] was 5.5 10^9/l. The GRAN [1, 5] was 0.77 10^9/l, the HCT [1, 5] was 40.8% and the HGB [1, 5] was 14.4 g/dL. For the same compound, the LYM [1, 5] was 4.4 10^9/l, the MCH [1, 5] was 19.7 pg and the MCHC [1, 5] was 35.4 g/dL. The MCV [1, 5] was 55.5 fL, the MONO [1, 5] was 0.10 10^9/l and the PLT [1, 5] was 1106 10^9/l. The RBC [1, 5] was 7.36 10^12/l, the RDW % [1, 5] was 14.1% and the WBC [1, 5] was 5.2 10^9/l. The GRAN [1, 6] was 1.23 10^9/l, the HCT [1, 6] was 40.5% and the HGB [1, 6] was 14.4 g/dL. For the same compound, the LYM [1, 6] was 5.7 10^9/l, the MCH [1, 6] was 19.1 pg and the MCHC [1, 6] was 35.7 g/dL. The MCV [1, 6] was 53.5 fL, the MONO [1, 6] was 0.17 10^9/l and the PLT [1, 6] was 1027 10^9/l. For the same compound, the RBC [1, 6] was 7.55 10^12/l, the RDW % [1, 6] was 14.2% and the WBC [1, 6] was 7.1 10^9/l. For the same compound, the GRAN ([1]; male, 30 mg/kg oral daily 7 d) was 1.17 10^9/l, the HCT ([1]; male, 30 mg/kg oral daily 7 d) was 40.6% and the HGB ([1]; male, 30 mg/kg oral daily 7 d) was 14.4 g/dL. For the same compound, the LYM ([1]; male, 30 mg/kg oral daily 7 d) was 6.3 10^9/l, the MCH ([1]; male, 30 mg/kg oral daily 7 d) was 19.7 pg and the MCHC ([1]; male, 30 mg/kg oral daily 7 d) was 35.4 g/dL. The MCV ([1]; male, 30 mg/kg oral daily 7 d) was 55.5 fL, the MONO ([1]; male, 30 mg/kg oral daily 7 d) was 0.17 10^9/l and the PLT ([1]; male, 30 mg/kg oral daily 7 d) was 991 10^9/l. For the same compound, the RBC ([1]; male, 30 mg/kg oral daily 7 d) was 7.31 10^12/l, the RDW % ([1]; male, 30 mg/kg oral daily 7 d) was 14.8% and the WBC ([1]; male, 30 mg/kg oral daily 7 d) was 7.7 10^9/l. For the same compound, the GRAN ([1]; male, 100 mg/kg oral daily 7 d) was 1.30 10^9/l, the HCT ([1]; male, 100 mg/kg oral daily 7 d) was 43.2% and the HGB ([1]; male, 100 mg/kg oral daily 7 d) was 15.2 g/dL. For the same compound, the LYM ([1]; male, 100 mg/kg oral daily 7 d) was 6.6 10^9/l, the MCH ([1]; male, 100 mg/kg oral daily 7 d) was 20.1 pg and the MCHC ([1]; male, 100 mg/kg oral daily 7 d) was 35.2 g/dL. For the same compound, the MCV ([1]; male, 100 mg/kg oral daily 7 d) was 57.1 fL, the MONO ([1]; male, 100 mg/kg oral daily 7 d) was 0.17 10^9/l and the PLT ([1]; male, 100 mg/kg oral daily 7 d) was 981 10^9/l. For the same compound, the RBC ([1]; male, 100 mg/kg oral daily 7 d) was 7.57 10^12/l, the RDW % ([1]; male, 100 mg/kg oral daily 7 d) was 14.9% and the WBC ([1]; male, 100 mg/kg oral daily 7 d) was 8.1 10^9/l. The GRAN ([1]; male, 300 mg/kg oral daily 7 d) was 1.40 10^9/l, the HCT ([1]; male, 300 mg/kg oral daily 7 d) was 43.6% and the HGB ([1]; male, 300 mg/kg oral daily 7 d) was 15.4 g/dL. For the same compound, the LYM ([1]; male, 300 mg/kg oral daily 7 d) was 7.0 10^9/l, the MCH ([1]; male, 300 mg/kg oral daily 7 d) was 19.6 pg and the MCHC ([1]; male, 300 mg/kg oral daily 7 d) was 35.4 g/dL. The MCV ([1]; male, 300 mg/kg oral daily 7 d) was 55.4 fL, the MONO ([1]; male, 300 mg/kg oral daily 7 d) was 0.20 10^9/l and the PLT ([1]; male, 300 mg/kg oral daily 7 d) was 1115 10^9/l. For the same compound, the RBC ([1]; male, 300 mg/kg oral daily 7 d) was 7.87 10^12/l, the RDW % ([1]; male, 300 mg/kg oral daily 7 d) was 15.1% and the WBC ([1]; male, 300 mg/kg oral daily 7 d) was 8.6 10^9/l. The “nuclear c-Myc expression” value [2] was “most substantial decrease”, the activity at 10 µM ([3]; 168 h, HepG2, 10 μM, one week steatosis induce media, Control 100.00, read-out: TAG (%)) was 21.1% and the activity at 10 µM ([3]; HepG2, 168 h, ratio between TAG content and cell viability, Control 100.0, read-out: TAG/cell viability) was 95.7%.
